Patent publication US9789121B2, “Small molecules that replace or agonize p53 function” (BUCK INSTITUTE, priority 2004, dated 2017)
Entries after “also recorded” stand apart in the source; their conditions may differ.

Tests used:
[1] = system: human osteosarcoma xenografted nude mice; test: G6 treatment of human osteosarcoma xenografted nude mice; assay type: in vivo
From the text: Initial trials of G6 in human osteosarcoma xenografted nude mice have shown promise (FIG. 10). Mice bearing p53 abnormal tumors have responded well to G6. […] Further mouse studies are currently underway.

DU145 = test: G6 sensitivity of prostate cell line DU145 (p53 Mt); assay type: cell-based; details: listed as Rp53-1
[2] = system: p53 Reporter in p53 Mt and Null Cells; test: p53 reporter in p53 Mt and Null cells; assay type: cell-based
breast cancer cells = test: Single pulse treatment of breast cancer cells with G6; assay type: cell-based; details: single pulse of G6 in the nanomolar range
From the text: Thus G6 appears to be a potent treatment.

[3] = system: p53 defective tumor cell line; test: G6 treatment of p53 defective tumor cell lines; assay type: cell-based; details: every p53 defective tumor cell line treated
From the text: (§1) Inherent in the initial drug design was a strategy to develop a therapy that targets mutant p53 containing cells and that would leave healthy cells expressing normal p53 unaffected (FIG. 3).

[4] = system: p53/Bax reporter in HEK293T cells; test: p53/Bax luciferase reporter system in HEK293T cells; assay type: cell-based
From the text: To identify p53 mimics, we developed a live mammalian cell system that reports the promotion of the expression of the pro-apoptotic Bax protein. The bax promoter consists of a 372 nucleotide 5′ UTR, a TATAA sequence, and several consensus sequences that bind p53, resulting in up-regulation of Bax expression (see, e.g., FIG. 1). By expressing these sites upstream of the gene encoding luciferase in HEK293T cells, we have established a novel set of reporter cell lines. These cells provide a system which allows identification of both direct activators of Bax expression and replacements of an apoptotic function of p53. In initial studies, cotransfection of a p53 expression plasmid with a reporter bearing oligomerized consensus binding sites yielded strongly luminescent cells, whereas cotransfection with an irrelevant plasmid gave no luminescence. […] By employing the Multi-Probe H liquid handling robotic system and the ultra-sensitive Top-Count luminometer, high-speed screening of thousands of compounds has been enabled at the Buck Institute. We obtained and screened a 2000 compound small molecule library made available by the National Cancer Institute in our p53 reporter system in HEK293T cells.

[5] = system: wild type cells from corresponding normal tissue; test: G6 treatment of wild type cells from corresponding normal tissue; assay type: cell-based
From the text: as §1

Lovo = test: G6 sensitivity of colon cell line Lovo (p53 WT); assay type: cell-based; details: listed as Rp53-1
LNcap = test: G6 sensitivity of prostate cell line LNcap (p53 WT); assay type: cell-based; details: listed as Rp53-1
HT29 = test: G6 sensitivity of colon cell line HT29 (p53 Mt); assay type: cell-based; details: listed as Rp53-1
MDA-435 = test: G6 sensitivity of breast cancer cells MDA-435 (p53 Mt); assay type: cell-based, human; details: MDA-435, breast, listed as Rp53-1
Description: To assess the ability of the small molecule compound Rp53-1 to mimic the transcription-promoting functions of p53 leading to Bax expression and induction of cell death, p53-mutated MDA-MB-435 and p53-wild-type MCF-7 human breast cancer cells were treated with Rp53-1. […] Lack of toxicity in cells generating normal p53 activity (all other human cells) would reduce possible side effects. Inherent in the initial drug design was a strategy to develop a therapy that targets mutant p53 containing cells and that would leave healthy cells expressing normal p53 unaffected (FIG. 3).

ColoHSR = test: G6 sensitivity of colon cell line ColoHSR (p53 Mt); assay type: cell-based; details: listed as Rp53-1
PC3 = test: G6 sensitivity of prostate cell line PC3 (p53 null); assay type: cell-based; details: listed as Rp53-1
SW480 = test: G6 sensitivity of colon cell line SW480 (p53 Mt); assay type: cell-based; details: listed as Rp53-1
Saos-2 = test: G6 sensitivity of osteosarcoma cell line Saos-2 (p53 null); assay type: cell-based; details: Saos-2, osteosarcoma, listed as Rp53-1

**Q.** Which adverse side effects ([1]; human osteosarcoma xenografted nude mice treated with G6) does the source give for `Cc1cc(OCc2nc(N)nc(N)c2-c2ccc(Cl)c(Cl)c2)ccc1[N+](=O)[O-]` [G6] here?
**A.** none of the mice have shown adverse side effects

**Q.** And the tumor regression ([1]; nude mice implanted with human osteosarcoma tissue, p53 abnormal tumors)?
**A.** complete regression of tumor

**Q.** And the “G6 Sensitivity” value (DU145)?
**A.** sensitive

**Q.** And the “induction of p53 Reporter” value [2]?
**A.** induces p53 Reporter

**Q.** What about the “activation of the cell death program / drug efficacy” value (breast cancer cells) of the same molecule?
**A.** complete drug efficacy; also recorded: sufficient to activate the cell death program

**Q.** And the “susceptibility to G6” value [3]?
**A.** showed susceptibility

**Q.** And the “expression of luciferase levels relative to transfected wild-type p53” value ([4]; high concentrations (10 μM))?
**A.** greater than transfected wild-type p53

**Q.** And the “luciferase expression and activity (p53 reporter)” value ([4]; listed as Rp53-1)?
**A.** activates the p53/Bax reporter; also recorded: significant levels of luciferase activity

**Q.** And the “effect of G6 on wild type cells” value [5]?
**A.** unaffected

**Q.** And the “G6 Sensitivity” value (Lovo)?
**A.** resistant

**Q.** And the “G6 Sensitivity” value (LNcap)?
**A.** resistant

**Q.** And the “G6 Sensitivity” value (HT29)?
**A.** sensitive

**Q.** And the “G6 Sensitivity” value (MDA-435)?
**A.** sensitive

**Q.** What about the “G6 Sensitivity” value (ColoHSR) of the same molecule?
**A.** sensitive

**Q.** What about the “G6 Sensitivity” value (PC3) of the same molecule?
**A.** sensitive

**Q.** What about the “G6 Sensitivity” value (SW480) of the same molecule?
**A.** sensitive

**Q.** And the “G6 Sensitivity” value (Saos-2)?
**A.** sensitive
